# How the values were obtained:
# [1] = tested on: immortalized human HaCaT keratinocytes; assay: Cell proliferation assay (MTT); format: cell-based; conditions: 72 h; for Effect on HaCaT cell viability/proliferation (MTT), in words / Effect on HaCaT cell viability (MTT), in words: serum-free DMEM; for Effect on HaCaT cell viability/proliferation (MTT), in words: whole range 1–50 μg/mL, vs. control without peptide, triplicate; for Effect on HaCaT cell viability (MTT), in words: peptide at 50 μg/mL; for Concentration above which the conjugate is cytotoxic: MTT, cell type not named in the sentence (keratinocytes and fibroblasts tested)
# Method: (§1) In our study two kind of cells were used: immortalized human HaCaT keratinocytes (DKFZ Heidelberg, Germany) and primary dermal fibroblasts obtained from 3 healthy donors. Both types of the used cell lines were grown in Dulbecco's modified Eagle's medium (DMEM) (Sigma–Aldrich, Germany), that contained […] of glucose, […] of L-glutamine, sodium pyruvate and sodium bicarbonate. Additionally, medium was supplemented with 10% of FCS (fetal calf serum, Sigma-Aldrich, Germany), 100 U/mL of penicillin and 100 μg/mL streptomycin (Sigma-Aldrich, Germany). The cells were grown in culture dishes (BD, USA) under standard conditions in a humidified atmosphere with 5% CO2 at 37°C and medium was changed every 2 days.
# (§2) The fibroblasts and keratinocytes were seeded at density of 4500 and 6000 cells per well, respectively, into 96-well plates suspended in a medium supplemented with 10% of FCS. After 24 h the media were exchanged with serum- and antibiotic- free DMEM and tested peptides dissolved in PBS were added yielding final concentration ranging from 1 to 50 μg/mL. Cells were incubated for the next 24 hours, when the medium was exchanged again and fresh portion of peptides (used at the same concentrations as previously) was added. Incubation was continued for the next 48 hours (the overall time of cell exposition to peptide was 72 h). At the end of the experiment cells were treated with 20 μL of MTT (5 mg/mL in PBS). After 3 h at 37°C under 5% CO2 medium was discarded and replaced by 6mM HCl in isopropanol. After 15 min when the purple crystals of formazan were fully solubilized, absorbance was read at 570 nm with a plate reader. The optical density reflects the level of cell viability as MTT is converted in purple formazan product only in the presence of viable mitochondria of the living cells.
# Fig 1 Pro-proliferative activity of the tested peptides towards human keratinocytes (A) and fibroblasts (B). Cells were incubated for 72 hours in serum-free DMEM medium in the presence of peptides applied at concentrations of 1,10, 25 and 50 μg/mL, respectively. The data represents results of MTT assay expressed as the percentage of the cell viability in comparison to their control sample (cells incubated in serum-free DMEM without tested peptides), additional positive control corresponds to the cells incubated in the presence of 10% FCS. All experiments were performed independently in triplicate. *P < 0.05, **P < 0.01, ***P < 0.001 vs. control.
# In order to evaluate a long-term effect of peptides, experiments were carried out for 72 hours. Before addition of the tested compounds, the cell medium was exchanged for the fresh one not containing any serum or antibiotic.
# [2] = tested on: human primary dermal fibroblasts; assay: Cell migration assay (in vitro scratch test); format: cell-based; conditions: 25 μg/mL, 24 h
# Method: (§3) Biopsies of healthy human skin were obtained aseptically from three donors (47–69 years old) undergoing circumcision after obtaining their written informed consent. All the procedures were approved by the Ethics Committee of Medical University of Gdansk (NKEBN/483/2011. Issued: 2011-12-19). The samples were washed several times with sterile PBS (Sigma-Aldrich, Germany) containing antibiotic (200 U/mL penicillin and 200 μg/mL streptomycin), after which, the subcutaneous tissue was cut off with a sharp blade. The resulting sheets were cut into small fragments, washed two times with sterile PBS and treated with 6 U/mL dispase II (BD, USA) overnight at 4°C to separate epidermis and dermis. The dermis was then digested with 1.0 mg/mL collagenase type I (from Clostridium histolyticum Sigma-Aldrich, Germany) for 2 hours at 37°C to isolate fibroblasts. Cells were used between the 2nd and 4th passage in all experiments.
# Fibroblasts and keratinocytes were seeded (5x10^5 cells/well) in 6-well plates. When desired monolayer confluence was reached, cells were starved for 24 hours in serum-free DMEM. The monolayer was scratched then with 200μL-pipette tip. […] The wounded areas were then photographed by means of Zeiss Observer D1 microscope equipped with camera AxioCam and analyzed with AxioVision software (Carl Zeiss, Germany). Migration activity of the cells treated with the tested peptides were expressed as the percentage of the wounded area with respect to the control probe (cell cultures without any of the peptide), assumed as 100%.
# An in vitro scratch test was performed to investigate the effect of the analyzed compounds on keratinocytes and fibroblasts migration. […]
# Fig 2 Effect of the peptides on HaCaT keratinocytes and fibroblasts cell migration in the in vitro scratch test. […] Migration was analyzed after 24 hours by means of Zeiss Observer D1 microscope, wounding areas were analyzed with AxioVision software and expressed as the percentage of the wound width in comparison to the control sample (cells incubated in DMEM without FCS). […]
# [3] = tested on: human primary dermal fibroblasts; assay: Cell proliferation assay (MTT); format: cell-based; conditions: 72 h, serum-free DMEM, peptide at 25 and 50 μg/mL
# Method: as §3, §1
# as §2, with “At the end of the experiment cells were treated with 20 μL of MTT (5 mg/mL in PBS). After 3 h at 37°C under 5% CO2 medium was discarded and replaced by 6mM HCl in isopropanol.” left out, “The optical density reflects the level of cell viability as MTT is converted in purple formazan product only in the presence of viable mitochondria of the living cells.” left out
# Fig 1 Pro-proliferative activity of the tested peptides towards human keratinocytes (A) and fibroblasts (B). […] The data represents results of MTT assay expressed as the percentage of the cell viability in comparison to their control sample (cells incubated in serum-free DMEM without tested peptides), additional positive control corresponds to the cells incubated in the presence of 10% FCS. […]
# [4] = tested on: HaCaT keratinocytes; assay: Cell migration assay (in vitro scratch test); format: cell-based, human; conditions: 25 μg/mL, 24 h, serum-free DMEM, Mitomycin C 5 μg/mL, vs. control without peptide, three independent experiments
# Method: Fibroblasts and keratinocytes were seeded (5x10^5 cells/well) in 6-well plates. When desired monolayer confluence was reached, cells were starved for 24 hours in serum-free DMEM. The monolayer was scratched then with 200μL-pipette tip. The floating cells and cell debris were removed by double washing in PBS, further replaced with a fresh serum-free medium. Wounded monolayers were incubated for the next 24 h in the presence of tested peptides used at concentration of 25 μg/mL and 5 μg/mL of Mitomycin C (Sigma Aldrich) to prevent proliferation. At the end of the experiment medium was removed and the cells were fixed with 3.7% PFA for 5 min, stained for the next 30 min with 0.05% crystal violet solution, washed several times with distilled water and the plates were left inverted for a couple of minutes to drain. The wounded areas were then photographed by means of Zeiss Observer D1 microscope equipped with camera AxioCam and analyzed with AxioVision software (Carl Zeiss, Germany). Migration activity of the cells treated with the tested peptides were expressed as the percentage of the wounded area with respect to the control probe (cell cultures without any of the peptide), assumed as 100%.
# An in vitro scratch test was performed to investigate the effect of the analyzed compounds on keratinocytes and fibroblasts migration. Evaluation was based on the efficiency of the invasion of the monolayer cells to the prewounded area within 24 h after stimulation with the appropriate compound added at concetration of 25μg/mL.
# Fig 2 Effect of the peptides on HaCaT keratinocytes and fibroblasts cell migration in the in vitro scratch test. HaCaT cells and fibroblasts were grown in 6-well plates until the 100% confluence was reached, then cells were starved for the next 12 hours in DMEM without 10% FCS and scratched once vertically with a 200μL pipette tip. After being washed two times with sterile PBS, a fresh portion of DMEM medium was added and cells were treated with the tested peptides applied at their optimal doses (25 μg/mL). Migration was analyzed after 24 hours by means of Zeiss Observer D1 microscope, wounding areas were analyzed with AxioVision software and expressed as the percentage of the wound width in comparison to the control sample (cells incubated in DMEM without FCS). Control+ FCS corresponds to the sample with cells incubated in the medium containing 10% FCS and was treated as the additional positive control. Data represent the mean ± SD of three independent experiments. *P < 0.05, **P < 0.01, ***P < 0.001 vs. control.
substance,measurement,setting,value
"IKKILSKIKKLL-NH2 [DK5, Lys-rich derivative of amphibian AMP temporin-1CEb, …-NH2, reference compound]","Effect on HaCaT cell viability/proliferation (MTT), in words",[1],negative dose-response relationship
same,Inhibitory effect on fibroblast migration in comparison to the control,[2]; scratch test,~50%
"YAGFLR-PEG-IKKILSKIKKLL-NH2 [DAL-PEG-DK5, conjugate of dalargin and DK5 joined by PEG-linker]","Effect on HaCaT cell viability (MTT), in words",[1],lowest cell viability
same,"Effect on HaCaT cell viability/proliferation (MTT), in words",[1],negative dose-response relationship
same,Concentration above which the conjugate is cytotoxic,[1],higher than 25 μg/mL
same,"Effect on fibroblast viability (MTT), in words",[3],lowest cell viability
same,"Effect on keratinocyte migration (scratch test), in words",[4],neutral or slightly stimulative
same,"Effect on fibroblast migration (scratch test), in words","[2]; serum-free DMEM, Mitomycin C 5 μg/mL, vs. control without peptide, three independent experiments",neutral or slightly stimulative
"YAGFLR-PEG-IKKILSKIKKLLK-NH2 [DAL-PEG-LK6, conjugate of dalargin and LK6 joined by PEG-linker]","Effect on HaCaT cell viability (MTT), in words",[1],cytotoxic effect
same,Concentration above which the conjugate is cytotoxic,[1],higher than 25 μg/mL
same,"Effect on fibroblast viability (MTT), in words",[3],lowest cell viability

# — paper PMC4608580, “Synthesis and Evaluation of Biological Activity of Antimicrobial – Pro-Proliferative Peptide Conjugates” (PLoS ONE, 2015)
